Values after ≈ are worked out from the molar mass of the structure shown.
Experiments:
[1] = Hemolytic activity in rabbit RBC assessed as hemolysis ratio at 4 ug/ml measured after 3 hrs by microplate reader assay relative to control; format: ADME, cell-based, Oryctolagus cuniculus, Erythrocyte; conditions: rabbit red blood cells (erythrocytes), at 4 µg/mL, read-out: Activity
[2] = tested on: Pichia kudriavzevii; test: Antifungal activity against Candida krusei AS2.1045 measured after 24 hrs by broth microdilution assay; format: functional
[3] = tested on: Candida albicans; test: Potency index, ratio of fluconazole MIC to test compound MIC for Candida albicans CPCC400616 measured after 24 hrs by broth microdilution assay; format: functional
[4] = tested on: Candida albicans; test: Antifungal activity against Candida albicans ATCC SC5314 measured after 24 hrs by broth microdilution assay; format: functional
[5] = tested on: MDA-MB-231; test: Cytotoxicity against human MDA-MB-231 cells assessed as reduction in cell viability incubated for 96 hrs by MTT assay; conditions: MDA-MB-231, 96 h
[6] = tested on: PC-3; test: Cytotoxicity against human PC3 cells assessed as reduction in cell viability incubated for 96 hrs by MTT assay; format: cell-based; conditions: PC-3, 96 h, read-out: IC50
[7] = tested on: Candida albicans; test: Antifungal activity against fluconazole-resistant Candida albicans 901 assessed as inhibition of microbial growth after 24 hrs by broth microdilution method; format: functional
[8] = Hemolytic activity in rabbit RBC assessed as hemolysis ratio at 1 ug/ml measured after 3 hrs by microplate reader assay relative to control; format: ADME, cell-based, Oryctolagus cuniculus, Erythrocyte; conditions: rabbit red blood cells (erythrocytes), at 1 µg/mL, read-out: Activity
[9] = tested on: Candida albicans; test: Antifungal activity against fluconazole-resistant Candida albicans CaR assessed as inhibition of microbial growth after 24 hrs by broth microdilution method; format: functional
[10] = tested on: Candida parapsilosis; test: Antifungal activity against Candida parapsilosis ATCC 22019 measured after 24 hrs by broth microdilution assay; format: functional; conditions: Lodderomyces parapsilosis
[11] = Hemolytic activity in rabbit RBC assessed as hemolysis ratio at 16 ug/ml measured after 3 hrs by microplate reader assay relative to control; format: ADME, cell-based, Oryctolagus cuniculus, Erythrocyte; conditions: rabbit red blood cells (erythrocytes), at 16 µg/mL, read-out: Activity
[12] = tested on: Candida albicans; test: Anti-biofilm activity in Candida albicans CPCC400616 assessed as inhibition of biofilm formation incubated for 24 hrs with 24 hrs precultured fungal suspension by XTT assay; format: functional
[13] = tested on: Candida albicans; test: Antifungal activity against fluconazole-resistant Candida albicans 632 assessed as inhibition of microbial growth after 24 hrs by broth microdilution method; format: functional
[14] = tested on: Candida albicans; test: Antifungal activity against fluconazole-resistant Candida albicans 904 assessed as inhibition of microbial growth after 24 hrs by broth microdilution method; format: functional
[15] = tested on: Candida albicans; test: Anti-biofilm activity in Candida albicans CPCC400616 assessed as inhibition of biofilm formation incubated for 24 hrs with 3 hrs precultured fungal suspension by XTT assay; format: functional
[16] = tested on: [Candida] zeylanoides; test: Antifungal activity against Candida zeylanoides CMGCC2.3739 measured after 24 hrs by broth microdilution assay; format: functional; conditions: Dujonia zeylanoides
[17] = tested on: HL-60; test: Cytotoxicity against human HL-60 cells assessed as reduction in cell viability incubated for 96 hrs by MTT assay; format: cell-based; conditions: HL-60, 96 h
[18] = tested on: Cryptococcus neoformans; test: Antifungal activity against Cryptococcus neoformans CMGCC2.3161 measured after 72 hrs by broth microdilution assay; format: functional
[19] = tested on: Nakaseomyces glabratus; test: Antifungal activity against Candida glabrata measured after 24 hrs by broth microdilution assay; format: functional
[20] = Metabolic stability in mouse liver microsomes assessed as half life; format: ADME, Microsome
[21] = Hemolytic activity in rabbit RBC assessed as hemolysis ratio at 2 ug/ml measured after 3 hrs by microplate reader assay relative to control; format: ADME, cell-based, Oryctolagus cuniculus, Erythrocyte; conditions: rabbit red blood cells (erythrocytes), at 2 µg/mL, read-out: Activity
[22] = tested on: Aspergillus fumigatus; test: Antifungal activity against Aspergillus fumigatus CMGCC3.7795 measured after 72 hrs by broth microdilution assay; format: functional
[23] = tested on: Candida albicans; test: Antifungal activity against Candida albicans CPCC400616 measured after 24 hrs by broth microdilution assay; format: functional
[24] = Metabolic stability in mouse liver microsomes assessed as clearance; format: ADME, Microsome; conditions: read-out: CLH
[25] = tested on: Candida albicans; test: Anti-biofilm activity in Candida albicans CPCC400616 assessed as inhibition of biofilm formation incubated for 24 hrs with 6 hrs precultured fungal suspension by XTT assay; format: functional
[26] = tested on: MCF-10A; test: Cytotoxicity against human MCF-10A cells assessed as reduction in cell viability incubated for 96 hrs by MTT assay; format: cell-based; conditions: read-out: IC50
[27] = Hemolytic activity in rabbit RBC assessed as hemolysis ratio at 8 ug/ml measured after 3 hrs by microplate reader assay relative to control; format: ADME, cell-based, Oryctolagus cuniculus, Erythrocyte; conditions: rabbit red blood cells (erythrocytes), at 8 µg/mL, read-out: Activity
[28] = tested on: Candida albicans; test: Antifungal activity against fluconazole-resistant Candida albicans 17# assessed as inhibition of microbial growth after 24 hrs by broth microdilution method; format: functional
[29] = tested on: Candida albicans; test: Anti-biofilm activity in Candida albicans CPCC400616 assessed as inhibition of biofilm formation incubated for 24 hrs with 1.5 hrs precultured fungal suspension by XTT assay; format: functional
[30] = tested on: Candida albicans; test: Fungicidal activity against Candida albicans CPCC400616 assessed as fungal killing incubated for 48 hrs followed by culturing on PDA plate for 24 hrs; format: functional; conditions: time 72 hrs

Structure (SMILES) | hemolysis at 3 h, 4 ug/ml [1] [%] | MIC [2] [mg/L] | Ratio [3] | MIC [4] [mg/L] | IC50 [5] [µM] | IC50 [6] [µM] | MIC [7] [mg/L] | hemolysis at 3 h, 1 ug/ml [8] [%] | MIC [9] [mg/L] | MIC [10] [mg/L] | hemolysis at 3 h, 16 ug/ml [11] [%] | MIC [13] [mg/L] | MIC [14] [mg/L] | MIC [16] [mg/L] | IC50 [17] [µM] | MIC [18] [mg/L] | MIC [19] [mg/L] | hemolysis at 3 h, 2 ug/ml [21] [%] | MIC [22] [mg/L] | MIC [23] [mg/L] | other results
Fc1cccc([Se]C(Cn2ccnc2)c2ccc(Cl)cc2Cl)c1 (stereo not given) | 87.7 | 0.13 (≈ 0.314 µM) | 8 | 0.06 (≈ 0.145 µM) | 13.4 | 20.4 | 1 | 0 | 2 | 0.25 (≈ 0.604 µM) | 100 | 0.5 | 1 | 0.25 (≈ 0.604 µM) | 8.26 | 0.13 (≈ 0.314 µM) | 1 (≈ 2.41 µM) | 0 | 4 (≈ 9.66 µM) | 0.25 (≈ 0.604 µM) | MIC50 [12]: > 128 mg/L; MIC80 [12]: > 128 mg/L; MIC50 [15]: 8 mg/L (≈ 19.3 µM); MIC80 [15]: 128 mg/L (≈ 309 µM); half-life [20]: 10.3 min; CLint scaled [24]: 31.8 L/h/kg; MIC50 [25]: 128 mg/L (≈ 309 µM); MIC80 [25]: > 128 mg/L; IC50 [26]: 28.6 µM; hemolysis at 3 h, 8 ug/ml [27]: 94.6%; MIC [28]: 1 mg/L; MIC50 [29]: 4 mg/L (≈ 9.66 µM); MIC80 [29]: 16 mg/L (≈ 38.6 µM)
Cc1ccc(C)c([Se]C(Cn2ccnc2)c2ccc(Cl)cc2Cl)c1 (stereo not given) | 84.4 | 0.5 (≈ 1.18 µM) | 8 | 0.03 (≈ 0.0707 µM) | 6.61 | 7.25 | 0.25 | 0 | 0.25 | 0.5 (≈ 1.18 µM) | 100 | 0.5 | 0.25 | 2 (≈ 4.71 µM) | 6.95 | 0.5 (≈ 1.18 µM) | 0.5 (≈ 1.18 µM) | 0.89 | 16 (≈ 37.7 µM) | 0.25 (≈ 0.589 µM) | IC50 [26]: 27.2 µM; hemolysis at 3 h, 8 ug/ml [27]: 100%; MIC [28]: 0.13 mg/L
CCc1ccccc1[Se]C(Cn1ccnc1)c1ccc(F)cc1F (stereo not given) | 93.6 | 0.06 (≈ 0.153 µM) | 8 | 0.03 (≈ 0.0767 µM) | 26.2 | 30.2 | 2 | 0 | 0.5 | 0.03 (≈ 0.0767 µM) | 100 | 1 | 0.5 | 0.25 (≈ 0.639 µM) | 16.9 | 1 (≈ 2.56 µM) | 0.5 (≈ 1.28 µM) | 0 | 16 (≈ 40.9 µM) | 0.06 (≈ 0.153 µM) | MIC50 [12]: > 128 mg/L; MIC80 [12]: > 128 mg/L; MIC50 [15]: 16 mg/L (≈ 40.9 µM); MIC80 [15]: > 128 mg/L; half-life [20]: 14.9 min; MFC99 [30]: 0.25 mg/L (≈ 0.639 µM); CLint scaled [24]: 22.1 L/h/kg; MIC50 [25]: > 128 mg/L; MIC80 [25]: > 128 mg/L; IC50 [26]: 28.1 µM; hemolysis at 3 h, 8 ug/ml [27]: 100%; MIC [28]: 0.5 mg/L; MIC50 [29]: 8 mg/L (≈ 20.4 µM); MIC80 [29]: 128 mg/L (≈ 327 µM)
